Laboratory results reported in US10329258B2, “CGAS in systemic lupus erythematosus (SLE)” (UNIVERSITY OF WASHINGTON, priority 2015, dated 2019).
Entries after “also recorded” stand apart in the source; their conditions may differ. Where two headings read alike, the source gives them in different places.

Legend:
[1] = target: T1, cGAS (Homo sapiens, UniProt Q8N884); test: cGAS activity assay: cGAMP production quantified by TLC (IC50 Enzyme Assay); format: biochemical; conditions: for inhibitory activity on cGAMP production, in words: TLC, FIG. 2C
T1 construct: made in house; host or cells: E. coli Rosetta BL21 pLysS
T1 sequence (Q8N884 whole entry, species assumed): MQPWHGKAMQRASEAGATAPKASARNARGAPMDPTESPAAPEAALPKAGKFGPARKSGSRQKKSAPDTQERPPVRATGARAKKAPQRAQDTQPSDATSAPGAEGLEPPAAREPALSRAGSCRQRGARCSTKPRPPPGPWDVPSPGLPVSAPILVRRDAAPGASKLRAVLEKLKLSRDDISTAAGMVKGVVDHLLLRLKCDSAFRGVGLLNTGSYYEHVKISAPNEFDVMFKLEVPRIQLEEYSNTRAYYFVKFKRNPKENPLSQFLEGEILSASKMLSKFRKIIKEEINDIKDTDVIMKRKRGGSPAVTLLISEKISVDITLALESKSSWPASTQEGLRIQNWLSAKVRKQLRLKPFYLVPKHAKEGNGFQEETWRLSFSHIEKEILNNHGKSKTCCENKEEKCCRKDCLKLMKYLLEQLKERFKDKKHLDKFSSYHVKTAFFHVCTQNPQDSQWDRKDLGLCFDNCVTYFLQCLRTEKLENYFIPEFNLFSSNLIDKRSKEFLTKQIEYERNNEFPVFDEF
Procedure: HCQ belongs to a family of antimalarial drugs that share the structure of aminoquinolines. To rapidly screen these antimalarial drugs for their ability to interfere with cGAS activation by ds-DNA, we performed dose titration experiments with drug and quantified cGAMP production using thin layer chromatography (TLC) (FIG. 2A). Reactions were performed in triplicate and normalized to no-inhibitor controls and fit by non-linear regression using Prism […]™ to determine the IC50 of each compound. Each compound yielded dose-response curves similar to HCQ but with different inhibitory activities (FIG. 2B). […] Strikingly, the computational predicted binding affinities of these anti-malaria drugs inversely correlated with the IC50 of anti-malarial drugs, validating the prediction of our computational analysis (FIG. 2D).
Initial characterization of enzyme activity was monitored in the presence of 250 μM ATP, 250 μM GTP, 0-500 μg/mL herring testes DNA, 1.4 μM cGAS, 3.3 nM ^32P-γ-ATP in a buffer composed of 40 mM Tris, 250 mM NaCl, 10 mM MgCl2, pH 7.5. Reactions were incubated for 1 hr at room temperature and subsequently spotted on PEI-cellulose TLC plates and developed using a solvent composition 1:1.5 [v/v] saturated NH4SO4 and 1.5 M KH2PO4 [pH 3.6]. For inhibition assays, compounds were characterized in the presence of the above reaction contents at fixed 100 μg/mL htDNA. TLC plates were exposed to a phosphor-storage screen and imaged using a TYPHOON™ imaging system. (See FIGS. 7-16).
cGAS activity was monitored in the presence of 250 μM ATP, 250 μM GTP, 0-500 μg/ml herring testes DNA. 1.4 μM cGAS. and 3.3 nM [^32P]-ATP in Tris buffer (pH 7.5). After incubation for 1 h at room temperature, samples were spotted on PEI-cellulose Thin Layer Chromatograph (TLC) plates, and developed using a solvent composed of 1:1.5 [v/v] saturated NH4SO4 and 1.5 M KH2PO4 [pH 3.6]. For inhibition assays, compounds were characterized in the presence of the above reaction contents at fixed 100 μg/ml HT DNA. TLC plates were exposed to a phosphor-storage screen and imaged using a TYPHOOON™ imaging system. (FIG. 7).
Thin Layer Chromatograph (TLC) assay was used for the quantification of cGAS inhibition by compounds X5/X6/X7. Reactions were normalized to no-inhibitor controls and fit by non-linear regression using Prizm […]™ to determine the IC50 of each compound. (FIG. 7).

[2] = tested on: IFNb production by THP1 cells; test: IFNb expression by QPCR in THP1 cells transfected with herring testis DNA; format: cell-based; conditions: for IC50: Homo sapiens, read-out: IC50 of inhibition of IFNb production by THP1 cells; for inhibition of IFNb production, effectiveness in words: THP1 cells transfected with DNA, compared with Quinacrine, AMCA, HCQ, Chloroquine
Text: Systemic Lupus Erythematosus (SLE) is strongly associated with increased expression of type I interferon (IFN-I) (Elkon, 2012). Both genetic as well as experimental studies indicate that IFN-I plays a central role in this disease (Lovgren, 2006) (Niewold, 2007). To determine the physiological relevance of our computational analysis and in vitro observance, we examined whether antimalarial drugs could inhibit IFNb production within the cell. […] Using this approach, we transfected THP1 cells with DNA in the presence or absence of antimalarial compounds and quantified IFNb expression by QPCR.
THP1 cells (0.2×10^6) were transfected with 0.5 ug herring testis DNA using Lipofectamine 2000 (Invitrogen) according to the manufacture's instruction. Before transfection, THP1 cells were incubated with different concentration of Hydroxychloroquine or other antimalarial drugs (100, 50, 25, 12.5 μM) for 5 minutes. Cells were stimulated for 16 hours and then harvested for RNA extraction.
Total RNA was isolated from THP1 cells using the RNeasy mini kit (Qiagen, Valencia, Calif.). cDNA was synthesized using 100 ng RNA with the high-capacity cDNA RT-KIT™ using random primers (Applied Biosystems, Foster City, Calif.). Reactions in duplicate were run on an ABI STEPONE PLUS™ using the primers from Qiagen (primer catalog number): a two-stage cycle of 95° C. for 15 s and 60° C. for 1 min was repeated for 40 cycles followed by a dissociation stage. Threshold cycle values were set as a constant threshold at 0.2, and fold changes in gene expression were then calculated using the 2^−ΔΔ^CT method.

[3] = target: T2, dsDNA/cGAS complex (Homo sapiens, UniProt Q8N884); test: Electrophoretic mobility shift assay (EMSA) of dsDNA (ISD) binding to cGAS; conditions: 0.2 μM ISD, 1.5 μM cGAS, HCQ 0.075~5 mM
T2 construct: made in house; host or cells: E. coli Rosetta BL21 pLysS
T2 sequence (Q8N884 whole entry, species assumed, one chain of several): as the sequence (Q8N884 whole entry, species assumed) above
Text: To determine whether these anti-malarial drugs could inhibit DNA binding to cGAS in vitro, we performed DNA binding studies by the electrophoretic mobility shift assay (EMSA). As previously shown, addition of increasing concentrations of cGAS to a constant concentration of ds DNA (ISD), results in the protein retarding migration of ISD on the gel (‘gel shift’) and less free DNA (FIG. 1, left panel). To test whether HCQ as a model antimalarial could attenuate the gel shift, we used constant concentrations of both ISD and cGAS (FIG. 1, right panel) in the presence of increasing concentrations of HCQ. As shown, increasing the concentration of HCQ reduced the gel shift caused by the formation of dsDNA/cGAS complexes and led to increasing free DNA at the bottom of the gel. […] Inhibition of formation of dsDNA/cGAS higher order complexes by antimalarial drugs are especially interesting and important since cGAS is activated by dsDNA induced oligomerization and dsDNA/cGAS complex formation is required for cGAS activation.
Electrophoretic mobility shift assay (EMSAs) were performed to measure the DNA-binding ability with or without HCQ in vitro. […] The mixtures were resolved on 1% agarose gel using 1×TBE electrophoresis buffer of at constant voltage of 100 V. The gel was analyzed by using a fluorescence-based EMSA kit (Molecular Probes) according to the manufacturer's protocol. […]

[4] = target: STING (Homo sapiens, UniProt Q86WV6); test: Binding of 32P-c-di-AMP by STING in the presence of HCQ; conditions: 32P-c-di-AMP (2 nM), STING (170 μM), different HCQ concentrations
STING, sequence (Q86WV6 whole entry H232R, species assumed): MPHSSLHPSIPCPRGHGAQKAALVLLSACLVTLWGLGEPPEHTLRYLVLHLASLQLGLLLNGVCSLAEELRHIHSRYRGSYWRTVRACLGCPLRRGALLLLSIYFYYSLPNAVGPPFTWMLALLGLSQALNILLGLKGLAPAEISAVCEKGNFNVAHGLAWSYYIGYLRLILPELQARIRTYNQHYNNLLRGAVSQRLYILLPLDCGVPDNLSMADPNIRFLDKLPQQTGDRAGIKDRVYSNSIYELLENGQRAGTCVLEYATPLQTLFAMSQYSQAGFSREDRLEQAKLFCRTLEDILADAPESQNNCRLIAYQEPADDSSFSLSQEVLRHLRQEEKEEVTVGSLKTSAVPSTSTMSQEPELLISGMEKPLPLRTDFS

[5] = tested on: THP1 cells; test: PolyIC Lipofectamine transfection of THP1 cells, IL-1b by ELISA; format: cell-based; conditions: PolyIC transfected THP1 cells, different concentration of HCQ
Text: PolyIC was transfected by Lipofectamine to THP1 cells with different concentration of HCQ.

[6] = tested on: 3 cell lines; test: Toxicity, average of 3 cell lines @ 50% cell death; format: cell-based
[7] = THP-1, THP1 cells transfected with herring testis DNA, 16 hours, QPCR
[8] = cGAS, fixed 100 μg/mL herring testes DNA, TLC of cGAMP, read-out: IC50 Enzyme Assay

| Compound | inhibitory activity on cGAMP production, in words [1] | IC50 [1, 8] [µM] | further results |
| --- | --- | --- | --- |
| CCN(CCO)CCCC(C)Nc1ccnc2cc(Cl)ccc12 (stereo not drawn) [HCQ, hydroxychloroquine] | intermediate inhibitory activities |  | IC50 [2, 7]: 3 to 25 µM; effect on dsDNA/cGAS binding (gel shift) [3]: blocked dsDNA/cGAS binding; also recorded: inhibits the DNA binding to cGAS; effect on c-di-AMP binding to STING [4]: not c-di-AMP to STING; effect on Lipofectamine transfection efficiency (IL-1b production) [5]: did not interfere with the Lipofectamine transfection efficiency |
| CCN(CC)CCCC(C)Nc1c2ccc(Cl)cc2nc2ccc(OC)cc12 (stereo not drawn) [Quinacrine, quinacrine] | relatively potent inhibitors |  | IC50 [2, 7]: 3 to 25 µM |
| COc1cc(NC(C)CCCN)c2ncccc2c1 (stereo not drawn) [compound 3, Primaquine] | very low inhibitory activity | 850 | inhibition of IFNb production, effectiveness in words [2]: less effective by about one log order |
| C=C[C@H]1CN2CC[C@H]1C[C@H]2[C@H](O)c1ccnc2ccc(OC)cc12 [compound 5, Quinine] | very low inhibitory activity | 2000 | inhibition of IFNb production, effectiveness in words [2]: less effective by about one log order |
| COc1ccc2nc3cc(Cl)ccc3c(N)c2c1 [compound 6, 9-amino-6-chloro-2-methoxyacridine] | relatively potent inhibitors |  | IC50 [1]: 32 µM; IC50 ([2]; THP-1, 16 h): 3 to 25 µM |
| O=C(O)[C@H](Cc1c[nH]c2ccccc12)Nc1c2ccccc2nc2ccccc12 [compound 9] |  | > 650 |  |
| CCOC(=O)c1ccc(Nc2c3ccccc3nc3ccccc23)cc1 [compound 10] |  | > 650 |  |
| O=[N+]([O-])c1cccc(Nc2c3ccccc3nc3ccccc23)c1 [compound 11] |  | > 650 |  |
| COc1cc(NS(C)(=O)=O)ccc1Nc1c2ccccc2nc2ccccc12 [compound 12] |  | > 650 |  |

Further compounds by falling IC50 [1, 8], results first:

| inhibitory activity on cGAMP production, in words [1] | IC50 [1, 8] [µM] | Compound | further results |
| --- | --- | --- | --- |
| intermediate inhibitory activities | 850 | CCN(CC)CCCC(C)Nc1ccnc2cc(Cl)ccc12 (stereo not drawn) [compound 2, Chloroquine] | IC50 ([2]; THP-1, 16 h): 3 to 25 µM |
|  | 350 | CCN(CCO)CCCC(C)Nc1ccnc2cc(Cl)ccc12 (stereo not drawn) [compound 1, hydroxychloroquine] |  |
|  | 35 | COc1ccc2nc3cc(N)ccc3c(N(C)CCCN(C)Cc3ccco3)c2c1 [compound 15, 9-(N-furfuryl-N-methyl-N′-methyl-1′,3′-propanediamine)-3-amino-7-methoxyacridine] |  |
|  | 23 | COc1ccc2nc3cc(N)ccc3c(N(C)CCCN(C)Cc3ccncc3)c2c1 [compound 14] | Toxicity [6]: 27.4 µM |
|  | 18 | COc1ccc2nc3cc(N)ccc3c(N(C)CCCN(C)Cc3ccccc3)c2c1 [compound 13, 9-(N-benzyl-N-methyl-N′-methyl-1′,3′-propanediamine)-3-amino-7-methoxyacridine] | Toxicity [6]: 33.1 µM |
|  | 13 | CCN(CC)CCCC(C)Nc1c2ccc(Cl)cc2nc2ccc(OC)cc12 (stereo not drawn) [compound 4, quinacrine] | Toxicity [6]: 33.0 µM |
|  | 10 | CCOc1ccc2nc3cc(N)ccc3c(N)c2c1 [compound 7] |  |
|  | 8 | CN(C)c1ccc2cc3ccc(N(C)C)cc3nc2c1 [compound 20] |  |
|  | 5 | Nc1c2ccccc2nc2ccccc12 [compound 8] |  |
|  | 1 | NCCCCNc1c2ccccc2nc2ccccc12 [compound 21] | Toxicity [6]: 16.0 µM |
